In US20250049809A1, “INHIBITORS OF MUTANT IDH1 AND IDH2” (Board of Regents, The University of Texas System, priority 2023, published 2025):

Legend:
WT IDH1 = WT IDH1 (Homo sapiens (Human), UniProt O75874); experiment: WT IDH1 enzymatic activity assay (NADPH fluorescence); assay type: biochemical; conditions: enzyme assay
Procedure: The enzymatic activity of WT IDH1 was assessed by measuring the fluorescence of the NADPH generated in the enzymatic reaction. The assay was performed in 384 well, white ProxiPlates (PerkinElmer, 6008280) in assay buffer containing 50 mM Hepes (Life Technologies, 15630080), 50 mM KCl (Teknova, P0327), 10 mM MgCl2 (Sigma-Aldrich, M1028), 1 mM DTT (Sigma-Aldrich, 43815), 0.02% BSA (Sigma-Aldrich, A3059) at pH 7.5. The final reaction volume was 10 μL. Stock solutions of the test compounds were prepared in 100% DMSO (Sigma, D2650) and serially diluted 1:3 using 100% DMSO. 50 nL of compound were then transferred to the assay plate using the Beckman Coulter ECHO 650 Acoustic Liquid Handler for a final DMSO concentration of 0.5%. 5 μL of WT IDH1 were added to the assay plate for a final concentration of 0.5 nM. 5 μL of assay buffer alone were added to negative control wells. 5 μL of an isocitrate (Sigma-Aldrich, 58790) and NADP (Sigma-Aldrich, N5755) mixture were added to the assay plate for a final concentration of 5 μM and 15 μM, respectively. Fluorescence of NADPH (excitation: 350 nm, emission 450 nm) was immediately measured kinetically for approximately 15 minutes using the BioTek Synergy Neo plate reader.

U87 IDH1R132H = U87 IDH1R132H (Homo sapiens (Human), UniProt O75874, R132H); experiment: U87 IDH1 R132H 2-HG cellular assay; assay type: cell-based; conditions: extracellular 2HG, 24 h treatment, IDH1 mutant-U-87 isogenic cell line
Sequence of U87 IDH1R132H (O75874 whole entry R132H): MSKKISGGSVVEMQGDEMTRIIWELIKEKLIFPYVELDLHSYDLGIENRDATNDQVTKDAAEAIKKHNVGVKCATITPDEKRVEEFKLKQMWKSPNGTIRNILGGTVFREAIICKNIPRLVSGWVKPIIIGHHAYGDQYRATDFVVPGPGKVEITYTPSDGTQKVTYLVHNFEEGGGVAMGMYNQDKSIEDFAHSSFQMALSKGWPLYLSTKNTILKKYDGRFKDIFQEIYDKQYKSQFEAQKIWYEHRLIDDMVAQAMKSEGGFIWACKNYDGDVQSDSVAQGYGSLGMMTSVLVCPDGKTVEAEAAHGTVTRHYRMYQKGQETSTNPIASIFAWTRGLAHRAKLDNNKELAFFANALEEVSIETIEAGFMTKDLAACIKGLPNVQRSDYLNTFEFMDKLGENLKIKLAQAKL
Procedure: The IDH1 mutant-U-87 isogenic cell line (ATCC HTB-14IG) used to test cellular inhibition is a glioma IDH1R132H mutant isogenic line derived from the parental U-87MG cell line. These cells are maintained in EMEM (ATCC 30-2003) culture media with 10% FBS and 10 U/mL Penicillin-Streptomycin. Twelve thousand cells are plated in polystyrene 384 well cell culture plates (Greiner Bio-One 781091) (12,000 cells/well) approximately 18 hours before compound treatment. Immediately before treatment, the cells are washed twice with PBS, followed by culture media replenishing. Cells are then treated with different concentrations of test compounds (5 μM to 0.3 pM) for 24 h. Extracellular 2HG levels are measured from cell culture media. For analyte extraction, 30 μL of culture media is transferred to 120 uL 100% acetonitrile in a deep 384 well plate and mixed well, followed by 5 min centrifugation at 3700 rpm at room temperature. 100 μL of supernatant is transferred to a flat bottom 384 well plate. Samples are run on the Agilent RapidFire-Mass Spectrometry instrument to detect 2HG levels. The samples from each well were aspirated for 600 ms and loaded onto a HILIC solid-phase extraction cartridge (Agilent) followed by a wash step for 3000 ms with 90% acetonitrile containing 5 mM ammonium acetate. Analytes were then eluted off the cartridge into the Agilent 6460 Triple Quad mass spectrometer with a 4500 ms elution step using 30% acetonitrile containing 5 mM ammonium acetate. The HILIC cartridge was then re-equilibrated by 90% acetonitrile containing 5 mM ammonium acetate for 500 ms. The 2HG was detected by an Agilent 6460 Triple Quad mass spectrometer in negative ion mode. Multiple reaction monitoring was used to quantify 2HG using the precursor ion and product ion at m/z 147.03 and 128.9, respectively. The percent activity of each sample is calculated by using DMSO and control compound treated references, and IC50 values are obtained using the GeneData Screener data analysis program.

TF1 IDH2R140Q = TF1 IDH2R140Q (Homo sapiens (Human), UniProt P48735, R140Q); experiment: TF1 IDH2 R140Q 2-HG cellular assay; assay type: cell-based; conditions: extracellular 2HG, 24 hr treatment, IDH2 mutant-TF1 isogenic cell line
Sequence of TF1 IDH2R140Q (P48735 40-452 R140Q): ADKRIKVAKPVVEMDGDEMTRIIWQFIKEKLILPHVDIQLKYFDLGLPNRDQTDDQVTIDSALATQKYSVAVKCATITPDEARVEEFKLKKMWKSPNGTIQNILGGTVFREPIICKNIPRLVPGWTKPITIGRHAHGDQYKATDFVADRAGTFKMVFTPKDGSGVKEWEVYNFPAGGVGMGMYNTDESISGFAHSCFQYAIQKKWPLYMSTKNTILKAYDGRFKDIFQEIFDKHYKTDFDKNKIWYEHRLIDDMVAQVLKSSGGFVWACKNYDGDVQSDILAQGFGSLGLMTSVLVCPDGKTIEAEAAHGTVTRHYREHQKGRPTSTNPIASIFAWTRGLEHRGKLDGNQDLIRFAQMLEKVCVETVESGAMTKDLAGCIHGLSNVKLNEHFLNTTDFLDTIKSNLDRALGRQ
Procedure: The IDH2 mutant-TF1 isogenic cell line (ATCC CRL-20031G) used to test cellular inhibition is an erythroblast cell line that was isolated from the marrow of a patient with erythroleukemia with the IDH2R140Q mutation. These cells are maintained in RPMI-1640 (ATCC 30-2001) culture media with 10% FBS, 10 U/mL Penicillin-Streptomycin, and 2 ng/mL GM-CSF. Thirty thousand cells are plated in polystyrene tissue culture treated 384 well cell culture plates (PerkinElmer 6007680) (30,000 cells/well) approximately 2 hours before compound treatment. Cells are then treated with different concentrations of test compounds (5 μM to 0.3 pM) for 24 hr. Extracellular 2HG levels are measured from cell culture media. For analyte extraction, 30 μL of culture media is transferred to 120 μL 100% acetonitrile in a deep 384 well plate and mixed well, followed by 5 min centrifugation at 3700 rpm at room temperature. 100 μL of supernatant is transferred to a flat bottom 384 well plate. Samples are run on the Agilent RapidFire-Mass Spectrometry instrument to detect 2HG levels. The samples from each well were aspirated for 600 ms and loaded onto a HILIC solid-phase extraction cartridge (Agilent) followed by a wash step for 3000 ms with 90% acetonitrile containing 5 mM ammonium acetate. Analytes were then eluted off the cartridge into the Agilent 6460 Triple Quad mass spectrometer with a 4500 ms elution step using 30% acetonitrile containing 5 mM ammonium acetate. The HILIC cartridge was then re-equilibrated by 90% acetonitrile containing 5 mM ammonium acetate for 500 ms. The 2HG was detected by an Agilent 6460 Triple Quad mass spectrometer in negative ion mode. Multiple reaction monitoring was used to quantify 2HG using the precursor ion and product ion at m/z 147.03 and 128.9, respectively. The percent activity of each sample is calculated by using DMSO and control compound treated references, and IC50 values are obtained using the GeneData Screener data analysis program.

Sequence of WT IDH1 (O75874 whole entry): as the sequence (O75874 whole entry R132H) above, with H132R counted along it

| Structure (SMILES) | IC50 (WT IDH1) [nM] | IC50 (U87 IDH1R132H) [nM] | IC50 (TF1 IDH2R140Q) [nM] |
| --- | --- | --- | --- |
| C=CC(=O)N1CCN(C2CCCC/C=C/CN3C(=O)OCc4cnc(nc43)N[C@@H](C)c3ccc2cc3)CC1 (stereo partly drawn) [Example 3, (3S,E)-5-(4-acryloylpiperazin-1-yl)-3-methyl-1^1,1^4-dihydro-1^2H-2-aza-1(7,1)-pyrimido[4,5-d][1,3]oxazina-4(1,4)-benzenacyclododecaphan-10-en-1^2-one] | 3170 | 0.14 | 277 |
| C=CC(=O)N1CCN(C2CCCCCCCN3C(=O)OCc4cnc(nc43)N[C@@H](C)c3ccc2cc3)CC1 (stereo partly drawn) [Example 4, (3S)-5-(4-acryloylpiperazin-1-yl)-3-methyl-1^1,1^4-dihydro-1^2H-2-aza-1(7,1)-pyrimido[4,5-d][1,3]oxazina-4(1,4)-benzenacyclododecaphan-1^2-one] | > 16700 | 0.2 | 282 |
